{
  "source": "patent US20230257480A1",
  "about": "“ENHANCING BLOOD-BRAIN BARRIER DRUG TRANSPORT BY TARGETING ENDOGENOUS REGULATORS” (THE BOARD OF TRUSTEES OF THE LELAND STANFORD JUNIOR …, priority 2019, published 2023)",
  "key": {"ALPL": {"biological_target": "T1, ALPL (Mus musculus, UniProt P09242)", "T1 construct": "from tissue; host or cells: brain sections (cerebral cortex vasculature) of aged C57BL/6 mice dosed in vivo", "T1 sequence (P09242 18-501)": "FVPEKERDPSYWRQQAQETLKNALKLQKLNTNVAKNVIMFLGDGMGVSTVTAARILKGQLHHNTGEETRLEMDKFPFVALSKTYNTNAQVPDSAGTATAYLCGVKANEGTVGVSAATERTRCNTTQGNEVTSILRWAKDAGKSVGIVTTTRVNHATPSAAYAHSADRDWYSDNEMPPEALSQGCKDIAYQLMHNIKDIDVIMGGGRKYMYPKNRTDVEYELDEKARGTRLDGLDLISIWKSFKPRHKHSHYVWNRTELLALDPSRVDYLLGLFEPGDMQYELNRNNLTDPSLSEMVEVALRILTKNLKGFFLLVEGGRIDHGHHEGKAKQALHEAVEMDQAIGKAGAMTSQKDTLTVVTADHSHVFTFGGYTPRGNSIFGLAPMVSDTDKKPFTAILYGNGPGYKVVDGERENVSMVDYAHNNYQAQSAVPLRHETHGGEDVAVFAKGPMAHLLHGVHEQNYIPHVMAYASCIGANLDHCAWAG", "test": "ALPL activity in the cerebral cortex vasculature (Red Alkaline Phosphatase Substrate Kit)", "type": "in vivo", "settings": "aged (22 m.o.) mice, 8.75 mg/kg intraperitoneally twice per day for three days, vs vehicle", "excerpt": "FIG. 12A is a dot plot representation of cell-surface, druggable gene candidates on brain endothelial cells. Genes were plotted by their degree of blood-brain barrier specificity (Daneman et al., PLoS One (2010). doi:10.1371/journal.pone.0013741) and correlation with plasma uptake. Genes were colored by their upregulation (brown) or downregulation (green) with age. FIG. 12B includes representative images of calcified nodules (Alizarin red staining) detected in aged (23 m.o.—bottom panel) but not young (3 m.o.—top panel) mice, recapitulating nodules seen in pericyte-deficient Pdgfbret/ret mice (Keller et al., Nat. Genet. (2013). doi:10.1038/ng.2723) (representative image of n=5 mice per age). […] FIG. 12E is a graph illustrating quantification of ALPL expression in the cerebral cortex vasculature of young (3 m.o.) and aged (23 m.o.) mice (n=7, two-sided t-test; mean+/−s.e.m.). […] Uptake in the brain endothelium and parenchyma was assessed by flow cytometry and confocal microscopy of the cortex and hippocampus. […] FIG. 12H is a graph illustrating quantification of ALPL activity in the cerebral cortex vasculature of aged (22 m.o.) mice treated with ALPL inhibitor (anti-ALPL) or vehicle and in young (3 m.o.) mice (n=6-9, one-way ANOVA with Tukey's multiple comparisons correction; mean+/−s.e.m.). […]"}, "brain parenchymal cells": {"system": "brain parenchymal cells", "test": "Flow cytometry of brain parenchymal (CD31-/CD45-) cell uptake of tracer after ALPL inhibitor treatment", "type": "in vivo, mice", "settings": "vs vehicle", "excerpt": "FIG. 12A is a dot plot representation of cell-surface, druggable gene candidates on brain endothelial cells. Genes were plotted by their degree of blood-brain barrier specificity (Daneman et al., PLoS One (2010). doi:10.1371/journal.pone.0013741) and correlation with plasma uptake. Genes were colored by their upregulation (brown) or downregulation (green) with age. FIG. 12B includes representative images of calcified nodules (Alizarin red staining) detected in aged (23 m.o.—bottom panel) but not young (3 m.o.—top panel) mice, recapitulating nodules seen in pericyte-deficient Pdgfbret/ret mice (Keller et al., Nat. Genet. (2013). doi:10.1038/ng.2723) (representative image of n=5 mice per age). FIG. 12C includes representative images of Type I Collagen expression (green) in Lectin^+ vasculature (red) in the cerebral cortex of young (3 m.o.—left panels) and aged (23 m.o.—right panels) mice. Scale bar=40 microns. FIG. 12D includes representative images of ALPL expression (yellow) in AQP4^+ vasculature (purple) in the cerebral cortex of young (3 m.o.—left panels) and aged (23 m.o.—right panels) mice. Scale bar=40 microns. FIG. 12E is a graph illustrating quantification of ALPL expression in the cerebral cortex vasculature of young (3 m.o.) and aged (23 m.o.) mice (n=7, two-sided t-test; mean+/−s.e.m.). FIG. 12F is a schematic diagram illustrating cerebrovascular ALPL inhibition. Aged (22 m.o.) mice were injected intraperitoneally with vehicle or ALPL inhibitor twice a day for three days before intravenous injection of plasma, human holotransferrin, or transferrin receptor antibody. Uptake in the brain endothelium and parenchyma was assessed by flow cytometry and confocal microscopy of the cortex and hippocampus. FIG. 12G includes representative images of ectopic ALPL activity (red) in the cerebral cortex vasculature of aged (22 m.o.) mice treated with ALPL inhibitor (anti-ALPL) or vehicle and in young (3 m.o.) mice. FIG. 12H is a graph illustrating quantification of ALPL activity in the cerebral cortex vasculature of aged (22 m.o.) mice treated with ALPL inhibitor (anti-ALPL) or vehicle and in young (3 m.o.) mice (n=6-9, one-way ANOVA with Tukey's multiple comparisons correction; mean+/−s.e.m.). FIGS. 12I-12L include graphs illustrating flow cytometry quantification of brain parenchymal (CD31−/CD45−) cell uptake of plasma in aged (22 m.o.) mice (FIG. 12I); plasma in young (3 m.o.) mice (FIG. 12J); human holo-transferrin (hu-Tf) in aged (22 m.o.) mice (FIG. 12K); or transferrin receptor antibody (TfR Ab) in aged (22 m.o.) mice (FIG. 12L) after ALPL inhibitor (anti-ALPL) and vehicle treatment, as assessed by the percent (%) of parenchymal cells that are tracer^+ and the relative mean fluorescence intensity (MFI) of tracer^+ parenchymal cells (for plasma, n=4; for hu-Tf, n=5-6; for TfR Ab, n=9, two-sided t-test; mean+/−s.e.m.). Tracer refers to plasma, hu-Tf, or TfR Ab FIG. 12M includes representative images of transferrin receptor antibody (TfR Ab) in the cortical vasculature (red) and parenchymal cells of ALPL inhibitor-treated aged (22 m.o.) mice. Arrowheads indicate TfR Ab^+ NeuN neurons. Scale bar=40 microns (left) and 10 microns (right). Data were replicated in at least 2 independent experiments.\nCNS cell isolation adopted previously described methods42,139,140. Briefly, cortices and hippocampi were microdissected, minced, and digested using the Neural Dissociation Kit (Miltenyi). Suspensions were filtered through a 100 μm strainer and myelin removed by centrifugation in 0.9 M sucrose. The remaining myelin-depleted cell suspension was blocked for ten minutes with Fc preblock (CD16/CD32, BD 553141) on ice and stained for 30 minutes with antibodies to distinguish brain endothelial cells (CD31+/CD45−), astrocytes (ACSA-2+), and neurons (NeuN+ or CD90.2/Thy1.2+). For analysis of plasma uptake, at least 1,000 cells of each population of interest were analyzed per sample. […]"}},
  "data": [
    {"smiles": "COc1ccc(OC)c(S(=O)(=O)Nc2cnc3ccccc3c2)c1", "note": "[ALPL inhibitor, 2,5-Dimethoxy-N-(quinolin-3-yl)benzenesulfonamide]", "values": [
      {"measurement": "ALPL activity in the aged brain vasculature", "setting": "ALPL", "result": "decreased"},
      {"measurement": "parenchymal uptake of transferrin receptor antibody", "setting": "brain parenchymal cells; aged (22 m.o.) mice, TfR Ab 20 mg/kg i.v.", "result": "increased"},
      {"measurement": "parenchymal uptake of human holo-transferrin", "setting": "brain parenchymal cells; aged (22 m.o.) mice, hu-Tf 40 mg/kg i.v.", "result": "increased"},
      {"measurement": "amount of plasma taken up by participating cells", "setting": "brain parenchymal cells; aged mice, parenchymal cells (MFI)", "result": "increased"},
      {"measurement": "percentage of plasma+ cells", "setting": "brain parenchymal cells; aged mice, parenchymal cells", "result": "did not change"},
      {"measurement": "plasma transport across the endothelium to brain parenchymal cells", "setting": "brain parenchymal cells; aged mice", "result": "increased"},
      {"measurement": "plasma transcytosis across the young BBB to the parenchyma", "setting": "brain parenchymal cells; young (3 m.o.) mice", "result": "did not significantly enhance"}
    ]}
  ]
}
